Experimental data published in ChEMBL document CHEMBL1150034, “Synthesis of peptidyl acetals as inhibitors of prolyl endopeptidase” (Bioorg Med Chem Lett, 1995).

Target: T1, Prolyl endopeptidase (Homo sapiens, UniProt P48147)
T1 sequence (P48147 whole entry): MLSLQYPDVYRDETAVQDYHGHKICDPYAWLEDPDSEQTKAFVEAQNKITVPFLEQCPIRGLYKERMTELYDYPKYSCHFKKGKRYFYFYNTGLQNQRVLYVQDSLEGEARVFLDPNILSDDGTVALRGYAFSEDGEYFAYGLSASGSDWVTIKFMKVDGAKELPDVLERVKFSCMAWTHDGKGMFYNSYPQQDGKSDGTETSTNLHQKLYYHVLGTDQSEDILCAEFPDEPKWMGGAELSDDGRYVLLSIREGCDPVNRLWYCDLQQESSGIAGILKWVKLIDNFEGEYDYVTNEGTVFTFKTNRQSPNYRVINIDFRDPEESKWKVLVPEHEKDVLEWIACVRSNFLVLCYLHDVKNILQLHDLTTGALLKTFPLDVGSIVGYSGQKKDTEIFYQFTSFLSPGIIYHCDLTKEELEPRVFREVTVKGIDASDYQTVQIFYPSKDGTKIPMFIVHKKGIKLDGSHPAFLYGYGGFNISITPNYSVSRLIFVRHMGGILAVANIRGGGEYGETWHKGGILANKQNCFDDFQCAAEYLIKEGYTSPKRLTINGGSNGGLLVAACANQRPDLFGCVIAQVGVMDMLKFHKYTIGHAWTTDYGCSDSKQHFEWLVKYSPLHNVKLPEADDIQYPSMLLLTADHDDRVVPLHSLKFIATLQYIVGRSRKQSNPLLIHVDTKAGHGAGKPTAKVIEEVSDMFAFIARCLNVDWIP
Test: Compound was evaluated for the inhibition of prolyl endopeptidase (PEP) purified from human peripheral blood mononuclear cells

IC50 [µM] | Compound
2.6 | COC(OC)C1CSCN1C(=O)C1CSCN1C(=O)OCc1ccccc1 (configuration not stated)
6.5 | COCC1COC(C2CCCN2C(=O)C2CCCN2C(=O)OCc2ccccc2)O1 (configuration not stated)
